In paper PMC6197744, “Triazolo[4,5-d]pyrimidines as Validated General Control Nonderepressible 2 (GCN2) Protein Kinase Inhibitors Reduce Growth of Leukemia Cells” (Computational and Structural Biotechnology Journal, 2018):
pIC50: −log10 of the molar value.

Key:
[1] = molecular target: standard panel of 50 protein kinases; experiment: Broad kinase panel screen, whole panel; format: binding; conditions: 0.5 μM
Protocol: (§1) Compounds 1–9 were screened in a radiometric […] kinase assay against human GCN2 and other kinases involved in the UPR and ISR pathways (Table 1). […] The most soluble of the potent tool compounds (1 and 2) were selected for in vitro cell-based assays where the phosphorylation of eIF2α (p-eIF2α) was used as a readout for GCN2 inhibition.
(§2) Compound 2 was screened against a standard panel of 50 protein kinases by Luceome Biotechnologies (Tucson, AZ). In brief, Compound 2 was dissolved and diluted in DMSO to a concentration of 12.5 μM from a 10 mM stock solution. As a control, compound 2 was evaluated for false positive against split-luciferase. For kinase assays, each C-terminal half of firefly luciferase linked kinase (Cfluc-Kinase) was translated along with the coiled coil Fos attached to the N-terminal fragment (Nfluc) (Fos-Nfluc) using rabbit reticulocyte lysate at 30 °C for 90 min. 24 µL aliquot of this lysate containing 1 µL of either DMSO or Compound 2 (at a final concentration 0.5 μM) was incubated for 30 minutes at room temperature followed by 1 hour incubation in the presence of a kinase specific probe. Finally, 80 µL of luciferin assay reagent was added and luminescence was immediately measured on a luminometer. Compound 2 was screened in duplicate against each kinase.
(§3) The % Inhibition and % Activity Remaining was calculated using the following equations: […]

[2] = molecular target: T1, human GCN2 (Homo sapiens, UniProt Q9P2K8); experiment: radiometric HotSpot kinase assay; format: biochemical; conditions: ATP at the ATP Km of GCN2; means of two independent experiments
T1 construct: purchased Reaction Biology Corporation (Malvern, PA)
Protocol: as §1
In vitro compound profiling for recombinant GCN2, PERK, HRI, PKR, or IRE1 kinases were performed at Reaction Biology Corporation (Malvern, PA) using the HotSpot kinase assay. Briefly, all compounds provided for testing were dissolved in 10 mM DMSO stock solutions. Serial dilutions were conducted by epMotion 5070 in DMSO. Specific kinase/substrate mixtures and required cofactors were prepared in reaction buffer (20 mM Hepes (pH 7.5), 10 mM MgCl2, 1 mM EGTA, 0.02% Brij35, 0.02 mg/ml BSA, 0.1 mM Na3VO4, 2 mM DTT, 1% DMSO). Compounds were added to the kinase reaction mixture by Acoustic technology (Echo550; nanoliter range) and incubated for 20 min at room temperature. The kinase reaction was initiated by adding ^33P ATP to a final concentration of 10 μM for single point kinase activity reading or to the ATP Km of GCN2 for IC50 readings. The reaction was incubated or 2 h at room temperature and kinase activity was detected by filter-binding method. IC50 values and curves were generated with GraphPad Prism 7 (GraphPad software).

[3] = molecular target: T2, ITK (Homo sapiens, UniProt Q08881); experiment: Broad kinase panel screen (split-luciferase); format: binding
T2 construct: purchased Luceome Biotechnologies
Protocol: as §2, §3

[4] = molecular target: T3, YANK2 (Homo sapiens, UniProt Q9NY57); experiment: Broad kinase panel screen (split-luciferase); format: binding; conditions: YANK2, 0.5 uM
T3 construct: purchased Luceome Biotechnologies
Protocol: as §2, §3

[5] = molecular target: T4, PKX/PRKX (Homo sapiens, UniProt P51817); experiment: Broad kinase panel screen (split-luciferase); format: binding
T4 construct: purchased Luceome Biotechnologies
Protocol: as §2, §3

[6] = molecular target: T5, CDK5 (Homo sapiens, UniProt Q00535); experiment: Broad kinase panel screen (split-luciferase); format: binding; conditions: CDK5, 0.5 uM
T5 construct: purchased Luceome Biotechnologies
Protocol: as §2, §3

[7] = molecular target: T6, EPHB2 (Homo sapiens, UniProt P29323); experiment: Broad kinase panel screen (split-luciferase); format: binding; conditions: EPHB2, 0.5 uM
T6 construct: purchased Luceome Biotechnologies
T6 sequence (P29323 19-1055): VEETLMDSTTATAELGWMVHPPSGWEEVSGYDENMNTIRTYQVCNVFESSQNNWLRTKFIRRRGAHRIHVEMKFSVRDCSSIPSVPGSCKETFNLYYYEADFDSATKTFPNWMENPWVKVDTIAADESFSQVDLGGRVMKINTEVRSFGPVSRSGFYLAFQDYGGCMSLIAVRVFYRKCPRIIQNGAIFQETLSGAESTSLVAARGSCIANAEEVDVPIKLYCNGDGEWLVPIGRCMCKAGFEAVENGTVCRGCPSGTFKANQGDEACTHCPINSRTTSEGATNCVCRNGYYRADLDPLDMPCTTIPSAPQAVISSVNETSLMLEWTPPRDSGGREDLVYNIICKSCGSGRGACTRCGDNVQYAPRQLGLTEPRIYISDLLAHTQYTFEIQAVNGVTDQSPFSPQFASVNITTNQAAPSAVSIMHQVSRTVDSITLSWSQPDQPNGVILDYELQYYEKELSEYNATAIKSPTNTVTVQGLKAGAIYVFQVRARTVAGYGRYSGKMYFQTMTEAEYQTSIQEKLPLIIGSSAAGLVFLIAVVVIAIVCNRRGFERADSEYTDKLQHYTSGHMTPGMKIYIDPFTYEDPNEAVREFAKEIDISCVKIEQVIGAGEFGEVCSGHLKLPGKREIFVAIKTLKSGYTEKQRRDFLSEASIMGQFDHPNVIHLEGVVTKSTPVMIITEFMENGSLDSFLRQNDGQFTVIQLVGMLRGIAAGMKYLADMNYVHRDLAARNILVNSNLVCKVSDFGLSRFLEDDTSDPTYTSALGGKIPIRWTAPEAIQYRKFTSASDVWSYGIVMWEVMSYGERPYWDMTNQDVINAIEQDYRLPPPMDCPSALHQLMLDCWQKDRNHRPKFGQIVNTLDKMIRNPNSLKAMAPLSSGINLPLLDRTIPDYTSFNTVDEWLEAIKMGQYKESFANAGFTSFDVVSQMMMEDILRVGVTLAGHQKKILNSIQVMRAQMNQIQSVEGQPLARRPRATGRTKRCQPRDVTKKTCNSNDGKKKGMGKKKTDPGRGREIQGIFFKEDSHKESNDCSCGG
Protocol: as §2, §3

[8] = molecular target: T7, VEGFR2/KDR/FLK1 (Homo sapiens, UniProt P35968); experiment: Broad kinase panel screen (split-luciferase); format: binding; conditions: VEGFR2/KDR/FLK1, 0.5 uM
T7 construct: purchased Luceome Biotechnologies
Protocol: as §2, §3

[9] = molecular target: T8, PTK2B/PYK2 (Homo sapiens, UniProt Q14289); experiment: Broad kinase panel screen (split-luciferase); format: binding; conditions: PTK2B/PYK2, 0.5 uM
T8 construct: purchased Luceome Biotechnologies
T8 sequence (Q14289 whole entry): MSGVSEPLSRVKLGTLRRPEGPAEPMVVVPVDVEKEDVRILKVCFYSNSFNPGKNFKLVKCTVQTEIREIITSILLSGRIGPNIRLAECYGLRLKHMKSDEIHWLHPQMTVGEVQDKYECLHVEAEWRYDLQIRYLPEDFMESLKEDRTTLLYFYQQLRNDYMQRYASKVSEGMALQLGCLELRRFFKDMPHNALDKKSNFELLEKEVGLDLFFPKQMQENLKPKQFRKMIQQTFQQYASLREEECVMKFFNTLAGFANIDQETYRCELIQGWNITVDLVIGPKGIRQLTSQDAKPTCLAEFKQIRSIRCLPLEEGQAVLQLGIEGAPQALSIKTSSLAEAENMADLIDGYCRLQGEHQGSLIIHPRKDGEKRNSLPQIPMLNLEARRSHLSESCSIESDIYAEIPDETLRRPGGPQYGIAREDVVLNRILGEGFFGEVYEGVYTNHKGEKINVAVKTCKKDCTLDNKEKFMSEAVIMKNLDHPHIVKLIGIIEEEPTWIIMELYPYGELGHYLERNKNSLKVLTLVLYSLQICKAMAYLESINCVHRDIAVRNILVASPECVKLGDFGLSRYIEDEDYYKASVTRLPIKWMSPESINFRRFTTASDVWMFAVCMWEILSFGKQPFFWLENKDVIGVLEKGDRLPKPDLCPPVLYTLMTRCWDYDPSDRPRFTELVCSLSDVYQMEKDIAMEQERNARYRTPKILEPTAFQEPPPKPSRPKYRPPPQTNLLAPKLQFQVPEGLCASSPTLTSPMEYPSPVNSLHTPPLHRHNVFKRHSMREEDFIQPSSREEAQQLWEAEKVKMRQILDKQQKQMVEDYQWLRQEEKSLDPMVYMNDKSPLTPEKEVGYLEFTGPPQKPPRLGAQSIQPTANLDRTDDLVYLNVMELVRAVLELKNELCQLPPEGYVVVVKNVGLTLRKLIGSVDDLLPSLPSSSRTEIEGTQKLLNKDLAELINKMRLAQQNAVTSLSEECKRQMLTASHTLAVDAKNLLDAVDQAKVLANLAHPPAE
Protocol: as §2, §3

[10] = molecular target: T9, SIK2 (Homo sapiens, UniProt Q9H0K1); experiment: Broad kinase panel screen (split-luciferase); format: binding; conditions: SIK2, 0.5 uM
T9 construct: purchased Luceome Biotechnologies
Protocol: as §2, §3

[11] = molecular target: T10, CAMK2D (Homo sapiens, UniProt Q13557); experiment: Broad kinase panel screen (split-luciferase); format: binding
T10 construct: purchased Luceome Biotechnologies
T10 sequence (Q13557 whole entry): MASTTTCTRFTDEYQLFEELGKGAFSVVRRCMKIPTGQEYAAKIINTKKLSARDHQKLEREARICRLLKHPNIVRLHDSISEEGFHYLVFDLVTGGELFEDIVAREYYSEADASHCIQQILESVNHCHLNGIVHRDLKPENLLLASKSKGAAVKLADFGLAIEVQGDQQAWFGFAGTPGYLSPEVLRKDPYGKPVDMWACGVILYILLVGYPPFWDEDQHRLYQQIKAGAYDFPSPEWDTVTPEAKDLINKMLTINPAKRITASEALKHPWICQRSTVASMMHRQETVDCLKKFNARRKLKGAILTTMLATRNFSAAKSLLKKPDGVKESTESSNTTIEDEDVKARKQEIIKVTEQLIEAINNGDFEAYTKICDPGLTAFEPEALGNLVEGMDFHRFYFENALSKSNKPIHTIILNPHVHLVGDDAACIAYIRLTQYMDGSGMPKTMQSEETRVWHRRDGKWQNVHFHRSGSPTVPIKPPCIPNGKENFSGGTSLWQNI
Protocol: as §2, §3

[12] = molecular target: T11, TNK1 (Homo sapiens, UniProt Q13470); experiment: Broad kinase panel screen (split-luciferase); format: binding; conditions: TNK1, 0.5 uM
T11 construct: purchased Luceome Biotechnologies
Protocol: as §2, §3

[13] = molecular target: T12, DDR1 (Homo sapiens, UniProt Q08345); experiment: Broad kinase panel screen (split-luciferase); format: binding; conditions: DDR1, 0.5 uM
T12 construct: purchased Luceome Biotechnologies
T12 sequence (Q08345 19-913): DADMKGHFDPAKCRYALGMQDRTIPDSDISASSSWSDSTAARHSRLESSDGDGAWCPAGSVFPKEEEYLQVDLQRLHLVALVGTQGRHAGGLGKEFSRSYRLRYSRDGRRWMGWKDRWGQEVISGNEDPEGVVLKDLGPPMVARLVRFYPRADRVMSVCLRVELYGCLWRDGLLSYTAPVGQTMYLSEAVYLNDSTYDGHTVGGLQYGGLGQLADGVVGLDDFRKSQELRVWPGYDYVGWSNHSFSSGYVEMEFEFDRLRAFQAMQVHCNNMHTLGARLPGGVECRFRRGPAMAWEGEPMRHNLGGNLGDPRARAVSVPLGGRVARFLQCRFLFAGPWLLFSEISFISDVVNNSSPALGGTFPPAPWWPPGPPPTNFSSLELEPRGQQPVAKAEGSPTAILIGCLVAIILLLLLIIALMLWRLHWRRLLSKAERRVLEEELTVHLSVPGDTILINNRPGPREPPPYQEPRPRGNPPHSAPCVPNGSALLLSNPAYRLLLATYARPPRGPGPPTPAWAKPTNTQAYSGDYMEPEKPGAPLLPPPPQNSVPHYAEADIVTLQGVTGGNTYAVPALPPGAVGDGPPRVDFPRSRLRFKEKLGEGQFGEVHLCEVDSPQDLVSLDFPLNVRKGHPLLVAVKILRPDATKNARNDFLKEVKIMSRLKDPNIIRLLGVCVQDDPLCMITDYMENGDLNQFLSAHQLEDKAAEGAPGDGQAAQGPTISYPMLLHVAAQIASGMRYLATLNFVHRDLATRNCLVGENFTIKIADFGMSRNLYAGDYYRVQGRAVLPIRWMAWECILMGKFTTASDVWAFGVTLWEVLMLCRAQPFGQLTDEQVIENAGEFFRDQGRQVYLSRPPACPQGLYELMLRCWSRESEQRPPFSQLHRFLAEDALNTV
Protocol: as §2, §3

[14] = molecular target: T13, FLT1/VEGFR1 (Homo sapiens, UniProt P17948); experiment: Broad kinase panel screen (split-luciferase); format: binding; conditions: FLT1/VEGFR1, 0.5 uM
T13 construct: purchased Luceome Biotechnologies
Protocol: as §2, §3

[15] = molecular target: T14, AAK1 (Homo sapiens, UniProt Q2M2I8); experiment: Broad kinase panel screen (split-luciferase); format: binding; conditions: AAK1, 0.5 uM
T14 construct: purchased Luceome Biotechnologies
Protocol: as §2, §3

[16] = molecular target: T15, DAPK3 (Homo sapiens, UniProt O43293); experiment: Broad kinase panel screen (split-luciferase); format: binding; conditions: DAPK3, 0.5 uM
T15 construct: purchased Luceome Biotechnologies
Protocol: as §2, §3

[17] = molecular target: T16, KIT (Homo sapiens, UniProt P10721); experiment: Broad kinase panel screen (split-luciferase); format: binding
T16 construct: purchased Luceome Biotechnologies
Protocol: as §2, §3

[18] = molecular target: T17, AURKC (Homo sapiens, UniProt Q9UQB9); experiment: Broad kinase panel screen (split-luciferase); format: binding
T17 construct: purchased Luceome Biotechnologies
T17 sequence (Q9UQB9 whole entry): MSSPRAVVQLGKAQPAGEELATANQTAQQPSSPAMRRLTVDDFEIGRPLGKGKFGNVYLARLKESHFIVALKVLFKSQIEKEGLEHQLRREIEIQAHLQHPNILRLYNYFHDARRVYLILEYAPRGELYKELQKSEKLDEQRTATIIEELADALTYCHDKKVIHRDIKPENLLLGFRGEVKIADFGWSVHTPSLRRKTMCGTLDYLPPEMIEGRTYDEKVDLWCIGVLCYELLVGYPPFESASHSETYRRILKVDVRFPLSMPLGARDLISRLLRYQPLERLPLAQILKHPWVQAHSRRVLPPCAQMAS
Protocol: as §2, §3

[19] = molecular target: T18, AKT1 (Homo sapiens, UniProt P31749); experiment: Broad kinase panel screen (split-luciferase); format: binding; conditions: AKT1, 0.5 uM
T18 construct: purchased Luceome Biotechnologies
Protocol: as §2, §3

[20] = molecular target: T19, CLK2 (Homo sapiens, UniProt P49760); experiment: Broad kinase panel screen (split-luciferase); format: binding; conditions: CLK2, 0.5 uM
T19 construct: purchased Luceome Biotechnologies
Protocol: as §2, §3

[21] = molecular target: T20, RSK2/RPS6KA3 (Homo sapiens, UniProt P51812); experiment: Broad kinase panel screen (split-luciferase); format: binding; conditions: RSK2/RPS6KA3, 0.5 uM
T20 construct: purchased Luceome Biotechnologies
T20 sequence (P51812 whole entry): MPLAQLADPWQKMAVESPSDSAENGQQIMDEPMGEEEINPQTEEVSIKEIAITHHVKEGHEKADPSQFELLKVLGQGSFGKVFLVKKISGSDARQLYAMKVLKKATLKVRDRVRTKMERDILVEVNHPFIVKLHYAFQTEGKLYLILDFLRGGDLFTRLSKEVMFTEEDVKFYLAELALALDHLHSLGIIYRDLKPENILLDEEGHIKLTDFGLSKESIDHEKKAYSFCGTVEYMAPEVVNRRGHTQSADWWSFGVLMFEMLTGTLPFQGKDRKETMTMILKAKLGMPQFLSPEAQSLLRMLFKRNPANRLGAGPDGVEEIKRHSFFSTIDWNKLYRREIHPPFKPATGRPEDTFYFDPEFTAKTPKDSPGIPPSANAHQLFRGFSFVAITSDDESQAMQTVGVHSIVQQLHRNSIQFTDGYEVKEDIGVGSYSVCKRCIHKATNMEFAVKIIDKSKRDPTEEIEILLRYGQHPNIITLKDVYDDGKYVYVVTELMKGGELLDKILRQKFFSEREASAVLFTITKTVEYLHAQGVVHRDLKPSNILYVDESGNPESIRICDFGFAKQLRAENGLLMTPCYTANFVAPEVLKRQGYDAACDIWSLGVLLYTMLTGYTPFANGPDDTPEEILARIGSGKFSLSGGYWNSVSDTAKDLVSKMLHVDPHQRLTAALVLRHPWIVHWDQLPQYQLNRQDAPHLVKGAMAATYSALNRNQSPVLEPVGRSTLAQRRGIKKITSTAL
Protocol: as §2, §3

[22] = molecular target: T21, IGF1R (Homo sapiens, UniProt P08069); experiment: Broad kinase panel screen (split-luciferase); format: binding
T21 construct: purchased Luceome Biotechnologies
Protocol: as §2, §3

[23] = molecular target: T22, SLK (Homo sapiens, UniProt Q9H2G2); experiment: Broad kinase panel screen (split-luciferase); format: binding
T22 construct: purchased Luceome Biotechnologies
Protocol: as §2, §3

[24] = molecular target: T23, AKT2 (Homo sapiens, UniProt P31751); experiment: Broad kinase panel screen (split-luciferase); format: binding; conditions: AKT2, 0.5 uM
T23 construct: purchased Luceome Biotechnologies
Protocol: as §2, §3

[25] = molecular target: T24, ACVR2A/ACVR2 (Homo sapiens, UniProt P27037); experiment: Broad kinase panel screen (split-luciferase); format: binding; conditions: ACVR2A/ACVR2, 0.5 uM
T24 construct: purchased Luceome Biotechnologies
Protocol: as §2, §3

[26] = molecular target: T25, AURKB (Homo sapiens, UniProt Q96GD4); experiment: Broad kinase panel screen (split-luciferase); format: binding
T25 construct: purchased Luceome Biotechnologies
Protocol: as §2, §3

[27] = molecular target: T26, AKT3 (Homo sapiens, UniProt Q9Y243); experiment: Broad kinase panel screen (split-luciferase); format: binding; conditions: AKT3, 0.5 uM
T26 construct: purchased Luceome Biotechnologies
T26 sequence (Q9Y243 whole entry): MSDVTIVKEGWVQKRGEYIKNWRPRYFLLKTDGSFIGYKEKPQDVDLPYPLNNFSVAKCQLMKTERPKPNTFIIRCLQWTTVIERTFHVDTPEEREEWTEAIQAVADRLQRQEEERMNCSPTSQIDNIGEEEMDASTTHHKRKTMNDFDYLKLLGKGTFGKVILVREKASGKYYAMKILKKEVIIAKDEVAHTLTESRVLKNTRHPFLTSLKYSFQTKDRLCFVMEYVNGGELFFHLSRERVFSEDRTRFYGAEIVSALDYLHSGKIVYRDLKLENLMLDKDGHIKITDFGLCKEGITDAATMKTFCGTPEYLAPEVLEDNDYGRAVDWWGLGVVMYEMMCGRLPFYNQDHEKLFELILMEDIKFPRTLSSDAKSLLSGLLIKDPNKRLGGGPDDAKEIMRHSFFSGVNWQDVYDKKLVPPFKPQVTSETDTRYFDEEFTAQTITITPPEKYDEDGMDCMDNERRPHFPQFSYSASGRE
Protocol: as §2, §3

CCOc1ccc(-n2nnc3cnc(Nc4cnn(CC)c4)nc32)cc1 [Compound 2, 3-(4-Ethoxyphenyl)-N-(1-ethyl-1H-pyrazol-4-yl)-3H-[1,2,3]triazolo[4,5-d]pyrimidin-5-amine]
kinase inhibition in standard broad kinase panel (in words) [1]: no significant kinase inhibition | pIC50 [2]: 7.73 | remaining activity at 0.5 µM [3]: 89.9% | remaining activity at 0.5 µM [4]: 100% | remaining activity at 0.5 µM [5]: 97.7% | remaining activity at 0.5 µM [6]: 94.4% | remaining activity at 0.5 µM [7]: 97.7% | remaining activity at 0.5 µM [8]: 77.1% | remaining activity at 0.5 µM [9]: 96% | remaining activity at 0.5 µM [10]: 100% | remaining activity at 0.5 µM [11]: 89.9% | remaining activity at 0.5 µM [12]: 100% | remaining activity at 0.5 µM [13]: 93.1% | remaining activity at 0.5 µM [14]: 51.7% | remaining activity at 0.5 µM [15]: 73.5% | remaining activity at 0.5 µM [16]: 97.6% | remaining activity at 0.5 µM [17]: 88.8% | remaining activity at 0.5 µM [18]: 98.7% | remaining activity at 0.5 µM [19]: 98.4% | remaining activity at 0.5 µM [20]: 93% | remaining activity at 0.5 µM [21]: 89.9% | remaining activity at 0.5 µM [22]: 100% | remaining activity at 0.5 µM [23]: 98.7% | remaining activity at 0.5 µM [24]: 96.8% | remaining activity at 0.5 µM [25]: 100% | remaining activity at 0.5 µM [26]: 94.7% | remaining activity at 0.5 µM [27]: 100%
